Test results: PubChem BioAssay AID2060496 (Molecular Pharmacology Branch, DTP, NCI, 2025)

Test system: 276233-004-R-J1-PDC complex spheroid viability
Assay: Anticancer human tumor 276233-004-R-J1-PDC patient-derived colon adenocarcinoma cell line growth inhibition [GQUAD]
Conditions: for IC50: curve of first compound; for viability, T/C: stronger effect = lower value
In short: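 Viability of tumor cells grown as complex spheroids with endothelial and stromal cells, exposed to drug combinations. Top concentration at or near clinical Cmax (else 10 microM), diluted in half-log increments.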

[1] = second compound 0.0316 µM, first compound 0.0316 µM
[2] = second compound 0.0316 µM, first compound 0.1 µM
[3] = second compound 0.0316 µM, first compound 0.316 µM
[4] = second compound 0.0316 µM, first compound 1 µM
[5] = second compound 0.0316 µM, first compound 3.16 µM
[6] = second compound 0.0316 µM, first compound 10 µM
[7] = second compound 0.1 µM, first compound 0.0316 µM
[8] = second compound 0.1 µM, first compound 0.1 µM
[9] = second compound 0.1 µM, first compound 0.316 µM
[10] = second compound 0.1 µM, first compound 1 µM
[11] = second compound 0.1 µM, first compound 3.16 µM
[12] = second compound 0.1 µM, first compound 10 µM
[13] = second compound 0.316 µM, first compound 0.0316 µM
[14] = second compound 0.316 µM, first compound 0.1 µM
[15] = second compound 0.316 µM, first compound 0.316 µM
[16] = second compound 0.316 µM, first compound 1 µM
[17] = second compound 0.316 µM, first compound 3.16 µM
[18] = second compound 0.316 µM, first compound 10 µM
[19] = second compound 1 µM, first compound 0.0316 µM
[20] = second compound 1 µM, first compound 0.1 µM
[21] = second compound 1 µM, first compound 0.316 µM
[22] = second compound 1 µM, first compound 1 µM
[23] = second compound 1 µM, first compound 3.16 µM
[24] = second compound 1 µM, first compound 10 µM
[25] = second compound 3.16 µM, first compound 0.0316 µM
[26] = second compound 3.16 µM, first compound 0.1 µM
[27] = second compound 3.16 µM, first compound 0.316 µM
[28] = second compound 3.16 µM, first compound 1 µM
[29] = second compound 3.16 µM, first compound 3.16 µM
[30] = second compound 3.16 µM, first compound 10 µM
[31] = second compound 10 µM, first compound 0.0316 µM
[32] = second compound 10 µM, first compound 0.1 µM
[33] = second compound 10 µM, first compound 0.316 µM
[34] = second compound 10 µM, first compound 1 µM
[35] = second compound 10 µM, first compound 3.16 µM
[36] = second compound 10 µM, first compound 10 µM
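Note: spheroids exposed to drugs for seven days.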
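Throughout, for viability, T/C: 100% = DMSO vehicle control viability.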

`COc1ncnc(C2CC2)c1-c1ncc2cnn(Cc3ccc(-c4nc(C(F)(F)F)cn4C(C)C)cc3)c2n1` + CN(C)c1ccc(Nc2c3ccc(NC(=O)CCN4CCCC4)cc3nc3cc(NC(=O)CCN4CCCC4)ccc23)cc1 gave an IC50 (second compound 0.0316 µM) of over 10 µM, an IC50 (second compound 0.1 µM) of over 10 µM and an IC50 (second compound 0.316 µM) of over 10 µM. It also gave an IC50 (second compound 1 µM) of 0.0316 µM, an IC50 (second compound 3.16 µM) of under 0.0316 µM and an IC50 (second compound 10 µM) of under 0.0316 µM. For the same compound, the viability, T/C [1] was 87.4%, the viability, T/C [2] was 84.2% and the viability, T/C [3] was 74.3%. The viability, T/C [4] was 75.6%, the viability, T/C [5] was 68.8% and the viability, T/C [6] was 100%. The viability, T/C [7] was 70.4%, the viability, T/C [8] was 90.2% and the viability, T/C [9] was 77.5%. It also gave a viability, T/C [10] of 75.8%, a viability, T/C [11] of 58.6% and a viability, T/C [12] of 65.8%. It also gave a viability, T/C [13] of 69.4%, a viability, T/C [14] of 72.7% and a viability, T/C [15] of 59.9%. For the same compound, the viability, T/C [16] was 44%, the viability, T/C [17] was 69.4% and the viability, T/C [18] was 72.5%. It also gave a viability, T/C [19] of 57.3%, a viability, T/C [20] of 49.6% and a viability, T/C [21] of 51.4%. For the same compound, the viability, T/C [22] was 47%, the viability, T/C [23] was 65.3% and the viability, T/C [24] was 68.5%. The viability, T/C [25] was 53.2%, the viability, T/C [26] was 35.7% and the viability, T/C [27] was 53.1%. For the same compound, the viability, T/C [28] was 49.5%, the viability, T/C [29] was 56.7% and the viability, T/C [30] was 57.6%. For the same compound, the viability, T/C [31] was 35.6%, the viability, T/C [32] was 41.8% and the viability, T/C [33] was 36.7%. For the same compound, the viability, T/C [34] was 38.4%, the viability, T/C [35] was 58.4% and the viability, T/C [36] was 53.5%.

In the case of `COc1cccc2c1C(=O)c1c(O)c3c(c(O)c1C2=O)CC(O)(C(=O)CO)CC3OC1CC(N)C(O)C(C)O1` (stereo unspecified) + CN(C)c1ccc(Nc2c3ccc(NC(=O)CCN4CCCC4)cc3nc3cc(NC(=O)CCN4CCCC4)ccc23)cc1, the IC50 (second compound 0.0316 µM) is reported as over 10 µM, the IC50 (second compound 0.1 µM) is reported as over 10 µM and the IC50 (second compound 0.316 µM) is reported as over 10 µM. For the same compound, the IC50 (second compound 1 µM) was over 10 µM, the IC50 (second compound 3.16 µM) was under 0.0316 µM and the IC50 (second compound 10 µM) was over 10 µM. It also gave a viability, T/C [1] of 88%, a viability, T/C [2] of 94.7% and a viability, T/C [3] of 77.5%. For the same compound, the viability, T/C [4] was 61.7%, the viability, T/C [5] was 43% and the viability, T/C [6] was 66.7%. For the same compound, the viability, T/C [7] was 102%, the viability, T/C [8] was 83.8% and the viability, T/C [9] was 72.8%. For the same compound, the viability, T/C [10] was 74.8%, the viability, T/C [11] was 60.6% and the viability, T/C [12] was 76.7%. The viability, T/C [13] was 80.6%, the viability, T/C [14] was 68.4% and the viability, T/C [15] was 67.9%. The viability, T/C [16] was 40.8%, the viability, T/C [17] was 63.1% and the viability, T/C [18] was 54.4%. The viability, T/C [19] was 55.8%, the viability, T/C [20] was 47% and the viability, T/C [21] was 53.2%. For the same compound, the viability, T/C [22] was 52.3%, the viability, T/C [23] was 63.5% and the viability, T/C [24] was 52.8%. It also gave a viability, T/C [25] of 49.6%, a viability, T/C [26] of 49.3% and a viability, T/C [27] of 56.8%. It also gave a viability, T/C [28] of 56.4%, a viability, T/C [29] of 59.4% and a viability, T/C [30] of 53.7%. The viability, T/C [31] was 48.6%, the viability, T/C [32] was 51.5% and the viability, T/C [33] was 55.7%. It also gave a viability, T/C [34] of 62.6%, a viability, T/C [35] of 50.5% and a viability, T/C [36] of 43.5%.

Work on `CC(C)n1c(=O)n(C)c2cnc3cc(F)c(-c4ccc(OCCCN5CCCCC5)nc4)cc3c21` + Cc1cnc(CNC(=O)c2c(=O)c3ccc(N4CCCN(C)CC4)nc3n3c2sc2ccccc23)cn1 yielded an IC50 (second compound 0.0316 µM) of over 10 µM, an IC50 (second compound 0.1 µM) of over 10 µM and an IC50 (second compound 0.316 µM) of over 10 µM. It also gave an IC50 (second compound 1 µM) of over 10 µM, an IC50 (second compound 3.16 µM) of over 10 µM and an IC50 (second compound 10 µM) of over 10 µM. The viability, T/C [1] was 81.3%, the viability, T/C [2] was 71.9% and the viability, T/C [3] was 82.5%. The viability, T/C [4] was 89.4%, the viability, T/C [5] was 79.3% and the viability, T/C [6] was 79.2%. The viability, T/C [7] was 79%, the viability, T/C [8] was 83.4% and the viability, T/C [9] was 76.8%. It also gave a viability, T/C [10] of 78.9%, a viability, T/C [11] of 96.5% and a viability, T/C [12] of 86.4%. For the same compound, the viability, T/C [13] was 85.9%, the viability, T/C [14] was 96.7% and the viability, T/C [15] was 82.1%. The viability, T/C [16] was 78.2%, the viability, T/C [17] was 85.2% and the viability, T/C [18] was 81.9%. For the same compound, the viability, T/C [19] was 69.9%, the viability, T/C [20] was 64.9% and the viability, T/C [21] was 89.3%. For the same compound, the viability, T/C [22] was 81.6%, the viability, T/C [23] was 85% and the viability, T/C [24] was 69.7%. The viability, T/C [25] was 80.4%, the viability, T/C [26] was 78% and the viability, T/C [27] was 79.3%. The viability, T/C [28] was 71.9%, the viability, T/C [29] was 75% and the viability, T/C [30] was 76.7%. For the same compound, the viability, T/C [31] was 74.3%, the viability, T/C [32] was 66.7% and the viability, T/C [33] was 66.8%. The viability, T/C [34] was 69.2%, the viability, T/C [35] was 80.8% and the viability, T/C [36] was 66.3%.
